Data reported in patent publication US20240199538A1, “Novel Chlorhexidine Salts and Related Compositions and Methods” (Colgate-Palmolive Company, priority 2022, published 2024).

Experiment: CHG and CHG-SLS mixture aging study, CHX degradation products by GC-MS
Type: physicochemical
Conditions: aqueous 20% CHG solution, 60° C. oven
Method: Sample preparation for CHX degradation analysis by using GCMS analysis: Both aged solutions are taken from the 60° C.oven. They are diluted at 1:3.5 ratios with methanol. Both solutions are filtrated with a 0.20 um PTFE filter, respectively, then they are diluted again at a 1:10 dilution ratio with methanol and then transferred into a ROBO autosampler vials for GC-MS analysis. The gas chromatography system 6890N with 5972 MS detector plus Gerstel MPS-2 autosampler (Agilenet Technologies, Santa, Clara, CA, USA) is used for detection of CHX degradation products. Separation is accomplished using GC column of HP-5MS (30 m×0.25 mm×0.25 um, length×inside diameter×film thickness, Agilent Technologies). The 1 μL sample is injected with the splitless mode. The oven temperature is initially held at 80° C.for 1 min. Thereafter the temperature is raised at 6° C./min until 300° C.and held for 2.33 min. Total running time is 40 minutes. Helium is used as the carrier gas and delivered at a constant flow rate at 1 mL/min (the pressure at 9.38 psi and velocity at 37 cm/sec). The injector temperature is set at 250° C. and the interface temperature between GC oven and MS detector is250° C. […]

Peak integration for CHX degradation product at 3 weeks (3 weeks): 523490
Peak integration for CHX degradation product at 6 weeks (6 weeks): 7560037
SMILES: N=C(NCCCCCCNC(=N)NC(=N)Nc1ccc(Cl)cc1)NC(=N)Nc1ccc(Cl)cc1.O=C(O)[C@H](O)[C@@H](O)[C@H](O)[C@H](O)CO.O=C(O)[C@H](O)[C@@H](O)[C@H](O)[C@H](O)CO [CHG, chlorhexidine gluconate]
